According to patent US20090099195A1 (ASTRAZENECA AB, priority 2007, published 2009):

Biological target: T1, hP2X3 (human Purinergic P2X receptors subtype 3), clone B (Homo sapiens, UniProt P56373)
T1 sequence (P56373 1-397): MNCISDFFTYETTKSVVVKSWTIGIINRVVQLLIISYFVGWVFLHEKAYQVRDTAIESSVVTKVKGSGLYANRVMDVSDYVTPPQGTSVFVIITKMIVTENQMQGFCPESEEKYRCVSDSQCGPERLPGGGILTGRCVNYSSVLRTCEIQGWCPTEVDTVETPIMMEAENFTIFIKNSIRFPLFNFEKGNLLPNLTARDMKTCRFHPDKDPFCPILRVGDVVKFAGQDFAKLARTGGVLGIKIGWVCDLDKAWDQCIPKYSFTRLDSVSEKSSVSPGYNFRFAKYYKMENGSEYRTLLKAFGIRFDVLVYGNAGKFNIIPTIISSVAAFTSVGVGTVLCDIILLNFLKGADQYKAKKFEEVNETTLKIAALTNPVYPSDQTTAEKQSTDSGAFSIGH
Assay: hP2X3 FLIPR calcium (Fluo-4) antagonist assay, clone B
Conditions: Human P2X3 FLIPR Clone B IC50 (nM), RLE cells expressing hP2X3 clone B (NM_002559); agonist 500 nM α,β-methylene-ATP

IC50 [nM]	SMILES
650	CC(=O)N1CCN(c2nc(NCc3ccc(C(C)C)cc3)c3c(n2)C(=O)N(C(C)C)C3)CC1 [Example 43, 2-(4-acetylpiperazin-1-yl)-6-isopropyl-4-[(4-isopropylbenzyl)amino]-5,6-dihydro-7H-pyrrolo[3,4-d]pyrimidin-7-one]
9600	COCCNc1nc2c(c(N3CCCC3Cc3ccc(Cl)cc3)n1)CN(C(C)C)C2=O (centres unmarked) [Example 44, 4-[2-(4-chlorobenzyl)pyrrolidin-1-yl]-6-isopropyl-2-[(2-methoxyethyl)amino]-5,6-dihydro-7H-pyrrolo[3,4-d]pyrimidin-7-one]
2200	CC(=O)NCCNc1nc2c(c(N3CCCC3Cc3ccc(Cl)cc3)n1)CN(C(C)C)C2=O (centres unmarked) [Example 45, N-[2-({4-[2-(4-chlorobenzyl)pyrrolidin-1-yl]-6-isopropyl-7-oxo-6,7-dihydro-5H-pyrrolo[3,4-d]pyrimidin-2-yl}amino)ethyl]acetamide]
2300	CC(=O)N1CCN(c2nc3c(c(N4CCCC4Cc4ccccc4Cl)n2)CN(C(C)C)C3=O)CC1 (centres unmarked) [Example 46, 2-(4-acetylpiperazin-1-yl)-4-[2-(2-chlorobenzyl)pyrrolidin-1-yl]-6-isopropyl-5,6-dihydro-7H-pyrrolo[3,4-d]pyrimidin-7-one]
300	CC(=O)N1CCN(c2nc3c(c(N4CCCC4Cc4cccc(Cl)c4)n2)CN(C(C)C)C3=O)CC1 (centres unmarked) [Example 48, 2-(4-acetylpiperazin-1-yl)-4-[2-(3-chlorobenzyl)pyrrolidin-1-yl]-6-isopropyl-5,6-dihydro-7H-pyrrolo[3,4-d]pyrimidin-7-one]
2000	CC(C)N1Cc2c(nc(N3CCNC(=O)C3)nc2N2CCCC2Cc2ccc(Cl)cc2)C1=O (centres unmarked) [Example 49, 4-[2-(4-chlorobenzyl)pyrrolidin-1-yl]-6-isopropyl-2-(3-oxopiperazin-1-yl)-5,6-dihydro-7H-pyrrolo[3,4-d]pyrimidin-7-one]
150	CC(=O)N1CCN(c2nc3c(c(N4CCCC4Cc4ccc(Cl)cc4)n2)CN(C(C)C)C3=O)CC1 (centres unmarked) [Example 50, 2-(4-acetylpiperazin-1-yl)-4-[2-(4-chlorobenzyl)pyrrolidin-1-yl]-6-isopropyl-5,6-dihydro-7H-pyrrolo[3,4-d]pyrimidin-7-one]
2700	CC(=O)N1CCN(c2nc3c(c(N(Cc4ccccc4)CC4CC4)n2)CN(C(C)C)C3=O)CC1 [Example 51, 2-(4-acetylpiperazin-1-yl)-4-[benzyl(cyclopropylmethyl)amino]-6-isopropyl-5,6-dihydro-7H-pyrrolo[3,4-d]pyrimidin-7-one]
720	CC(=O)N1CCN(c2nc3c(c(N4CCCC4c4ccc(Cl)cc4)n2)CN(C(C)C)C3=O)CC1 (centres unmarked) [Example 52, 2-(4-acetylpiperazin-1-yl)-4-[2-(4-chlorophenyl)pyrrolidin-1-yl]-6-isopropyl-5,6-dihydro-7H-pyrrolo[3,4-d]pyrimidin-7-one]
750	CC(=O)N1CCN(c2nc(NC(C)c3ccc(Cl)cc3)c3c(n2)C(=O)N(C(C)C)C3)CC1 (centres unmarked) [Example 53, 2-(4-acetylpiperazin-1-yl)-4-{[1-(4-chlorophenyl)ethyl]amino}-6-isopropyl-5,6-dihydro-7H-pyrrolo[3,4-d]pyrimidin-7-one]
240	CC(=O)N1CCN(c2nc3c(c(N4CCCC4Cc4ccccc4)n2)CN(C(C)C)C3=O)CC1 (centres unmarked) [Example 54, 2-(4-acetylpiperazin-1-yl)-4-(2-benzylpyrrolidin-1-yl)-6-isopropyl-5,6-dihydro-7H-pyrrolo[3,4-d]pyrimidin-7-one]
9700	CC(=O)N1CCN(c2nc(NCCc3ccc(C)c(C)c3)c3c(n2)C(=O)N(C(C)C)C3)CC1 [Example 55, 2-(4-acetylpiperazin-1-yl)-4-{[2-(3,4-dimethylphenyl)ethyl]amino}-6-isopropyl-5,6-dihydro-7H-pyrrolo[3,4-d]pyrimidin-7-one]
2700	CC(=O)N1CCN(c2nc(NCCc3ccc(C)cc3C)c3c(n2)C(=O)N(C(C)C)C3)CC1 [Example 56, 2-(4-acetylpiperazin-1-yl)-4-{[2-(2,4-dimethylphenyl)ethyl]amino}-6-isopropyl-5,6-dihydro-7H-pyrrolo[3,4-d]pyrimidin-7-one]
8500	CC(C)N1Cc2c(nc(NCCN(C)C)nc2N2CCCC2Cc2ccc(Cl)cc2)C1=O (centres unmarked) [Example 57, 4-[2-(4-chlorobenzyl)pyrrolidin-1-yl]-2-{[2-(dimethylamino)ethyl]amino}-6-isopropyl-5,6-dihydro-7H-pyrrolo[3,4-d]pyrimidin-7-one]
270	CC(=O)N1CCN(c2nc3c(c(N(Cc4ccccc4)Cc4ccc(Cl)cc4)n2)CN(C(C)C)C3=O)CC1 [Example 58, 2-(4-acetylpiperazin-1-yl)-4-[benzyl(4-chlorobenzyl)amino]-6-isopropyl-5,6-dihydro-7H-pyrrolo[3,4-d]pyrimidin-7-one]
220	CC(=O)N1CCN(c2nc3c(c(N(Cc4ccc(Cl)cc4)CC4CC4)n2)CN(C(C)C)C3=O)CC1 [Example 59, 2-(4-acetylpiperazin-1-yl)-4-[(4-chlorobenzyl)(cyclopropylmethyl)amino]-6-isopropyl-5,6-dihydro-7H-pyrrolo[3,4-d]pyrimidin-7-one]
1400	CC(C)N1Cc2c(NC(C)(C)Cc3ccc(Cl)cc3)nc(N3C[C@@H](C)O[C@@H](C)C3)nc2C1=O [Example 61, 4-{[2-(4-chlorophenyl)-1,1-dimethylethyl]amino}-2-[(2R,6S)-2,6-dimethylmorpholin-4-yl]-6-isopropyl-5,6-dihydro-7H-pyrrolo[3,4-d]pyrimidin-7-one]
340	CC(=O)NC1CCN(c2nc(NC(C)(C)Cc3ccc(Cl)cc3)c3c(n2)C(=O)N(C(C)C)C3)C1 (centres unmarked) [Example 62, N-[1-(4-{[2-(4-chlorophenyl)-1,1-dimethylethyl]amino}-6-isopropyl-7-oxo-6,7-dihydro-5H-pyrrolo[3,4-d]pyrimidin-2-yl)pyrrolidin-3-yl]acetamide]
9200	CC(C)N1Cc2c(NC(C)(C)Cc3ccc(Cl)cc3)nc(N3CCN(CC(=O)N(C)C)CC3)nc2C1=O [Example 63, 2-[4-(4-{[2-(4-chlorophenyl)-1,1-dimethylethyl]amino}-6-isopropyl-7-oxo-6,7-dihydro-5H-pyrrolo[3,4-d]pyrimidin-2-yl)piperazin-1-yl]-N,N-dimethylacetamide]
3500	CCN1CCN(c2nc(NC(C)(C)Cc3ccc(Cl)cc3)c3c(n2)C(=O)N(C(C)C)C3)CC1 [Example 64, 4-{[2-(4-chlorophenyl)-1,1-dimethylethyl]amino}-2-(4-ethylpiperazin-1-yl)-6-isopropyl-5,6-dihydro-7H-pyrrolo[3,4-d]pyrimidin-7-one]
420	CC(=O)N1CCCN(c2nc(NC(C)(C)Cc3ccc(Cl)cc3)c3c(n2)C(=O)N(C(C)C)C3)CC1 [Example 65, 2-(4-acetyl-1,4-diazepan-1-yl)-4-{[2-(4-chlorophenyl)-1,1-dimethylethyl]amino}-6-isopropyl-5,6-dihydro-7H-pyrrolo[3,4-d]pyrimidin-7-one]
1400	CC(C)N1Cc2c(NC(C)(C)Cc3ccc(Cl)cc3)nc(NCCCN3CCCC3=O)nc2C1=O [Example 66, 4-{[2-(4-chlorophenyl)-1,1-dimethylethyl]amino}-6-isopropyl-2-{[3-(2-oxopyrrolidin-1-yl)propyl]amino}-5,6-dihydro-7H-pyrrolo[3,4-d]pyrimidin-7-one]
450	CC(=O)N(C)C1CCN(c2nc(NC(C)(C)Cc3ccc(Cl)cc3)c3c(n2)C(=O)N(C(C)C)C3)C1 (centres unmarked) [Example 67, N-[1-(4-{[2-(4-chlorophenyl)-1,1-dimethylethyl]amino}-6-isopropyl-7-oxo-6,7-dihydro-5H-pyrrolo[3,4-d]pyrimidin-2-yl)pyrrolidin-3-yl]-N-methylacetamide]
350	CC(C)N1Cc2c(NC(C)(C)Cc3ccc(Cl)cc3)nc(N3CCNC(=O)CC3)nc2C1=O [Example 68, 4-{[2-(4-chlorophenyl)-1,1-dimethylethyl]amino}-6-isopropyl-2-(5-oxo-1,4-diazepan-1-yl)-5,6-dihydro-7H-pyrrolo[3,4-d]pyrimidin-7-one]
780	CC(C)N1Cc2c(NC(C)(C)Cc3ccc(Cl)cc3)nc(NCCN3CCCC3=O)nc2C1=O [Example 70, 4-{[2-(4-chlorophenyl)-1,1-dimethylethyl]amino}-6-isopropyl-2-{[2-(2-oxopyrrolidin-1-yl)ethyl]amino}-5,6-dihydro-7H-pyrrolo[3,4-d]pyrimidin-7-one]
3800	CC(C)CN1Cc2c(NC(c3ccccc3)c3ccccc3)nc(N3CCOCC3)nc2C1=O [Example 73, 4-(Benzhydryl-amino)-6-isobutyl-2-morpholin-4-yl-5,6-dihydro-pyrrolo[3,4-d]pyrimidin-7-one]
4300	O=C1c2nc(N3CCOCC3)nc(NC(c3ccccc3)c3ccccc3)c2CN1C1CC1 [Example 74, 4-(Benzhydryl-amino)-6-cyclopropyl-2-morpholin-4-yl-5,6-dihydro-pyrrolo[3,4-d]pyrimidin-7-one]
> 30000	O=C1c2nc(N3CCOCC3)nc(NC(c3ccccc3)c3ccccc3)c2CN1C1CCCC1 [Example 75, 4-(Benzhydryl-amino)-6-cyclopentyl-2-morpholin-4-yl-5,6-dihydro-pyrrolo[3,4-d]pyrimidin-7-one]

SMILES	IC50 [nM]
CCC(=O)N1CCN(c2nc(NC(C)(C)Cc3ccc(Cl)cc3)c3c(n2)C(=O)N(C(C)C)C3)CC1 [Example 71, 4-{[2-(4-chlorophenyl)-1,1-dimethylethyl]amino}-6-isopropyl-2-(4-propionylpiperazin-1-yl)-5,6-dihydro-7H-pyrrolo[3,4-d]pyrimidin-7-one]	130
